Here are results for five molecules from patent US9562031B1, “Phenethyldihydrobenzodioxolones and methods of use” (Sequoia Sciences, Inc., priority 2015, dated 2017).

Read-outs that look alike come from different tables or passages of the source.

For test [1], the system named is OVCAR-3 cells. As to the kind of experiment: antiproliferation assay, OVCAR-3. Format: cell-based. The following applies: Homo sapiens. The procedure:
(§1) For the antiproliferation assay, NCI-H460 (large cell lung carcinoma) or M14 (amelanotic melanoma) cells were grown in RPMI-1640 with 10% FBS supplemented with L-glutamine and HEPES. Cells were seeded into 96-well plates at 5×10^2 to 5×10^4 cells/well and allowed to adhere overnight; the medium was then removed. A stock solution of test compound in DMSO was diluted in medium to generate a series of working solutions. Aliquots (100 μl) of the working solutions were then added to the appropriate test wells to expose cells to the final concentrations of compound in a total volume of 100 μl. Seven different concentrations were tested, with 2-5 wells per concentration. Camptothecin was used as a positive control; wells containing vehicle without compound were used as negative controls. Plates were kept for 72 h in a 37° C., 5% CO2 incubator. After incubation, viable cells were detected with the CELLTITER 96 AQueous Non-Radioactive Cell Proliferation Assay (Promega), and IC50 values were determined using GraphPad Prism 5 software.
(§2) Antiproliferation of several of the active compounds was tested against additional cell lines.

In test [2] the test system is M14 (amelanotic melanoma) cells. In words: antiproliferation assay (72 h, CELLTITER 96), M14. The following applies: Homo sapiens. Format: cell-based, human. Put shortly:
(§3)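 Human M14 melanoma and NCI-H460 lung carcinoma cells in RPMI-1640/10% FBS, seeded at 5×10^2–5×10^4 cells/well and adhered overnight, then exposed to seven compound concentrations for 72 h at 37 °C. Viable cells read by CellTiter 96 AQueous (MTS); IC50 = concentration giving 50% of maximal growth inhibition.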

Test [3] concerns K-562 cells. In words: antiproliferation assay, K-562. The following applies: Homo sapiens, K562. In kind it is cell-based. As for the experimental part:
as §1, §2

Test [4] deals with NCI-H187 cells. In words: antiproliferation assay, NCI-H187. In kind it is cell-based. The following applies: Homo sapiens. The procedure:
as §1, §2

Test [5] deals with NCI-H460 (large cell lung carcinoma) cells. In words: antiproliferation assay (72 h, CELLTITER 96), NCI-H460. In kind it is cell-based, human. The conditions noted are these: Homo sapiens. Put shortly: as §3
The subject of test [6] is NCI/ADR-RES cells. In words: antiproliferation assay, NCI/ADR-RES. Format: cell-based. The following applies: Homo sapiens. The procedure: as §1, §2
(§4) Compound 4 was tested for antiproliferation activity against several paclitaxel-resistant human cancer cell lines.

For test [7], the system named is MOLT-4 cells. As to the kind of experiment: antiproliferation assay, MOLT-4. In kind it is cell-based. The conditions noted are these: Homo sapiens. As for the experimental part:
as §1, §2

Test [8] has as its system LOX-IMVI cells. As to the kind of experiment: antiproliferation assay, LOX-IMVI. Format: cell-based. The conditions noted are these: Homo sapiens. The procedure:
as §1, §2

In test [9] the test system is MES-SA/Dx5 cells. In words: antiproliferation assay, MES-SA/Dx5. The conditions noted are these: Homo sapiens. In kind it is cell-based. The procedure: as §1, §2, §4
In test [10] the test system is SK-Mel-2 cells. In words: antiproliferation assay, SK-Mel-2. In kind it is cell-based. The conditions noted are these: Homo sapiens. The procedure: as §1, §2
For test [11], the system named is OVCAR-4 cells. As to the kind of experiment: antiproliferation assay, OVCAR-4. Format: cell-based. The conditions noted are these: Homo sapiens. As for the experimental part: as §1, §2
The subject of test [12] is EKVX cells. As to the kind of experiment: antiproliferation assay, paclitaxel-resistant EKVX. Format: cell-based. The following applies: Homo sapiens. As for the experimental part:
as §1, §4

In test [13] the test system is TK-10 cells. As to the kind of experiment: antiproliferation assay, paclitaxel-resistant TK-10. Format: cell-based. The conditions noted are these: Homo sapiens. As for the experimental part: as §1, §4
Test [14] has as its system ACHN cells. As to the kind of experiment: antiproliferation assay, paclitaxel-resistant ACHN. The following applies: Homo sapiens. Format: cell-based. As for the experimental part:
as §1, §4

In test [15] the test system is UO-31 cells. In words: antiproliferation assay, paclitaxel-resistant UO-31. In kind it is cell-based. The conditions noted are these: Homo sapiens. As for the experimental part: as §1, §4
Test [16] has as its system HCT-15 cells. In words: antiproliferation assay, paclitaxel-resistant HCT-15. Format: cell-based. The conditions noted are these: Homo sapiens. As for the experimental part:
as §1, §4

The test system of test [17] is DLD-1 cells. In words: antiproliferation assay, paclitaxel-resistant DLD-1. In kind it is cell-based. The conditions noted are these: Homo sapiens. As for the experimental part: as §1, §4
The mark [18] stands for this setting: NCI-H460, Table 3, read-out: NCI-H460 IC50.

For `C=CC[C@H]1C[C@]2([C@@H](C)Cc3ccc(OC)cc3F)OCOC2=CC1=O` (relative stereo) [Compound 2, 6-allyl-7a-(1-(2-fluoro-4-methoxyphenyl)propan-2-yl)-7,7a-dihydrobenzo[d][1,3]dioxol-5(6H)-one], the IC50 in [1] amounted to 60 nM; in test [2] (Table 3), 11 nM; in test [3], 76 nM; in test [4] it was 91 nM; in [5] (setting [18]), 88 nM; in [5] (NCI-H460, as quoted in the pharmacokinetics text, read-out: IC50 against NCI-H460 human lung cancer cells), 90 nM. Besides, the 50% inhibitory concentration (IC50) in [6] was 45 nM; in test [7], 110 nM; in [8], 56 nM; in test [9] (MES-SA/Dx5, MES-SA/Dx5), 52 nM.
As for `C=CC[C@H]1C[C@]2([C@H](C)Cc3cc(F)c(OC)cc3F)OCOC2=CC1=O` (relative stereo) [Compound 6, 6-allyl-7a-(1-(2,5-difluoro-4-methoxyphenyl)propan-2-yl)-7,7a-dihydrobenzo[d][1,3]dioxol-5(6H)-one], the IC50 turned out to be 38 nM in [1]; 10 nM in [2] (Table 3); 28 nM in [3]; 22 nM in test [4]; 35 nM in test [5] (setting [18]); 13 nM in test [6]. In addition, the IC50 came out at 81 nM in test [7]; 18 nM in test [8]; 14 nM in test [9] (MES-SA/Dx5, MES-SA/Dx5).
Regarding `C=CC[C@H]1C[C@]2([C@@H](C)Cc3ccc(OC)c(C(N)=O)c3)OCOC2=CC1=O` [Compound 29, 5-((S)-2-((3aR,5S)-5-allyl-6-oxo-3a,4,5,6-tetrahydrobenzo[d][1,3]dioxol-3a-yl)propyl)-2-methoxybenzamide], the IC50 was 57 nM in test [1]; 12 nM in test [2] (Table 4); 25 nM in test [3]; 9.2 nM in [10]; 66 nM in test [5] (NCI-H460, Table 4, read-out: NCI-H460 IC50); 44 nM in test [6]. Further, the IC50 in [7] worked out at 83 nM; in test [8], 26 nM; in test [9] (MES-SA/Dx5, MES-SA/Dx5) it was 31 nM.
On to `CCC[C@H]1C[C@]2([C@H](C)Cc3cc(F)c(OC)cc3F)OCOC2=CC1=O` [Compound 61, (6S,7aR)-7a-((R)-1-(2,5-difluoro-4-methoxyphenyl)propan-2-yl)-6-propyl-7,7a-dihydrobenzo[d][1,3]dioxol-5(6H)-one], for which the concentration for half-maximal inhibition (IC50) in [2] (Table 7) stood at 17 nM; in test [5] (NCI-H460, Table 7, read-out: NCI-H460 IC50), 140 nM; in test [6], 63 nM; in test [7] it was 120 nM; in test [8] it was 53 nM; in test [11] it was 37 nM. The molecule further had an IC50 in test [9] (MES-SA/Dx5, MES-SA/Dx5) of 84 nM.
Regarding `CC(=O)O[C@H]1C(=O)[C@@]2(C)[C@H]([C@H](OC(=O)c3ccccc3)[C@]3(O)C[C@H](OC(=O)[C@H](O)[C@@H](NC(=O)c4ccccc4)c4ccccc4)C(C)=C1C3(C)C)[C@]1(OC(C)=O)CO[C@@H]1C[C@@H]2O` [paclitaxel, reference compound], the IC50 in [12] is 150 nM; in test [13], 80 nM; in test [6] (paclitaxel-resistant NCI/ADR-RES), 9600 nM; in [14] it was 90 nM; in [15] it was 240 nM; in [9] (MES-SA/Dx5, paclitaxel-resistant MES-SA/Dx5), 5000 nM. The IC50 turned out to be 165 nM in test [16] and 90 nM in [17].
